# Laboratory results taken from patent US6589967B1, “Oxime O-ether compounds and fungicides for agricultural and horticultural use” (Nippon Soda Co. Ltd., priority 1999, dated 2003).
# Test system: snap bean gray mold fungus (Botrytis cinerea)
# Experiment: Test on Kidney Bean Gray Mold Control
# Type: in vivo
# Conditions: 50 ppm active ingredient, cut Kidney bean flowers (Nagauzura) dipped, spores sprayed, placed on detached leaves, 7 days at 20° C., high humidity
# Method: Now, explanation is made on how the compounds according to the present invention are effective as an active ingredient of a fungicide for controlling various plant diseases with reference to Test examples described later. In the Test Examples, the control efficacy is determined by visually checking the infested state of the test plants at the time of observation, namely, checking the damage to the host plants and the developing state of the disease-causing fungus appeared on leaves, stems, etc. of the test plants, compared to the control test plants which are healthy. Flowers of Kidney bean (variety; Nagauzura) grown in a flat vessel for culturing seedlings are cut, and the cut flowers were dipped into a solution prepared by diluting the emulsifiable concentrate prepared for the compound of the present invention at a concentration of 50 ppm based on the active ingredient. After the dipping, the flowers were dried at a room temperature. Then, spore solution of snap bean gray mold fungus (Botrytis cinerea) was sprayed to the flowers. The flowers sprayed with spores of the gray mold fungus were placed on the leaves which were detached from healthy Kidney bean plants, and those leaves were placed in a room being maintained at 20° C. and high humidity with repeated lighting of 12 hours intervals, and the Kidney bean leaves were incubated in the room for 7 days. Then, the infestation degree by the fungus on the leaves was checked in comparison to the control healthy leaves to determine the control efficacy. […] Note that the compound numbers in the following correspond to the same compound numbers in the Table 1. Compound Nos. 1, 3, 6, 7, 11, 12, 13, 14, 15, 18, 20, 21, 22, 23, 25, 26, 27, 29, 36, 48, 49, 192, 194, 195, 196, 198, 201, 203, 204, 207, 208, 209, 210, 213, 216, 219, 220, 222, 223, 224, 225, 227, 228, 229, 231, 233, 234, 235, 236, 237, 239, 240, 242
compound,measurement,value
COCOc1cccc(OC)c1CON=C(C)c1cc(C)cc(C)n1 [Compound No. 23],control performance (control efficacy),excellent control performance
